Numbers after ± are expanded uncertainties.
Test: osmotic coefficient (dimensionless); mn = molality of the nth substance listed, in mol/kg
Details: 101 kPa, Liquid

O=S(=O)([O-])[O-].[Ca+2] [calcium sulfate] + O
Details | osmotic coefficient
273.12 K, m1 = 0.00937 | 0.732 ± 0.013
273.12 K, m1 = 0.00952 | 0.731 ± 0.013
273.12 K, m1 = 0.01046 | 0.723 ± 0.014
273.12 K, m1 = 0.01092 | 0.719 ± 0.014
273.12 K, m1 = 0.011 | 0.719 ± 0.014
273.13 K, m1 = 0.00526 | 0.78 ± 0.011
273.13 K, m1 = 0.0056 | 0.774 ± 0.011
273.13 K, m1 = 0.00625 | 0.766 ± 0.012
273.13 K, m1 = 0.0067 | 0.76 ± 0.012
273.13 K, m1 = 0.00714 | 0.755 ± 0.012
273.13 K, m1 = 0.00742 | 0.751 ± 0.012
273.13 K, m1 = 0.00782 | 0.747 ± 0.013
273.13 K, m1 = 0.00915 | 0.734 ± 0.013
273.14 K, m1 = 0.00418 | 0.798 ± 0.01
273.14 K, m1 = 0.00487 | 0.786 ± 0.011
